Measured values taken from patent US8309769B2, “Crystalline forms of 2-[2-chloro-4-methylsulfony1-3-(2,2,2-trifluoroethoxymethyl)benzoyl]cyclohexan-1,3-dione” (BASF SE, priority 2007, dated 2012).

Type: physicochemical
Experimental: The form in question or mixtures of different forms of tembotrione were suspended in a mixture of methanol with water (volume ratio methanol:water 1:9) at temperatures in the range from 10 to 30° C., and the temperature varied cyclically at a rate of 0.33 K min^−1.

CS(=O)(=O)c1ccc(C(=O)C2C(=O)CCCC2=O)c(Cl)c1COCC(F)(F)F [form A, 2-[2-chloro-4-methylsulfonyl-3-(2,2,2-trifluoro-ethoxymethyl)benzoyl]cyclohexan-1,3-dione]
stability against phase change: modification found after 8 days: unchanged

CS(=O)(=O)c1ccc(C(=O)C2C(=O)CCCC2=O)c(Cl)c1COCC(F)(F)F [mixture of forms A, B and C, 2-[2-chloro-4-methylsulfonyl-3-(2,2,2-trifluoro-ethoxymethyl)benzoyl]cyclohexan-1,3-dione]
stability against phase change: modification found after 2 days: converted into form A

CS(=O)(=O)c1ccc(C(=O)C2C(=O)CCCC2=O)c(Cl)c1COCC(F)(F)F [form B, 2-[2-chloro-4-methylsulfonyl-3-(2,2,2-trifluoro-ethoxymethyl)benzoyl]cyclohexan-1,3-dione]
stability against phase change: modification found after 3 days: converted completely into modification C
